Measured values from paper PMC8637440, “Structural Modifications Yield Novel Insights Into the Intriguing Pharmacodynamic Potential of Anti-inflammatory Nitro-Fatty Acids” (Frontiers in Pharmacology, 2021).
Counter-ions that a name gives are not always drawn. Each block holds one compound with its values, some of them ahead of it. Residues, ends and D or L forms follow the SMILES beside them. *: point of attachment. Cbz = O=C(OCc1ccccc1)*

Columns and labels:
NF-κB p65 = NF-κB p65 transcription factor ELISA in TNFα-stimulated HCT-116 cells; type: cell-based; conditions: Homo sapiens, HCT-116, 4 h, read-out: inhibition of NF-κB p65 signaling
Description: (§1) The Nrf-2 and NF-κB transcription factors in the nuclear extracts were detected using an Nrf-2 Transcription Assay Kit (Cayman Chemical, # 600590) and NF-κB (p65 and p50) Transcription Factor Assay Kit (Cayman Chemical, # 10007889 and # 10006912). Prior to assay performance, the nuclear extracts were generated using a Nuclear Extraction Kit (Cayman Chemical, # 10009277). The assay was performed according to the manufacturer’s instructions. For all kits, the nuclear extracts were incubated overnight at 4°C. Development was carried out for 15–20 min or until the wells turned medium to dark blue. Five minutes after the stop solution had been added, the absorbance was read at 450 nm using a plate reader.
The proteasome inhibitor MG132 ([Lee and Goldberg, 1998]) was used as a positive control, as proteasomal inhibition leads to stabilization of I-κB and thus inhibits the activation of the NF-κB signaling pathway. We used a MG132 incubation period of 4 h as longer incubations have been described to activate NF-κB signaling ([Lee et al., 2013]).
FIGURE 1 Effects of NFA on the NF-κB p65 and p50 signaling pathway in colorectal cancer cells. […] Incubation for 4 h with the proteasome inhibitor MG132 (1 µM) served as the positive control. […] Values are normalized to protein concentration and unstimulated vehicle control. Data are represented as mean ± SD of (A) n = 3 (DMSO, 16.9.9, 9NOA control of right panel, 18.4.4, 18.6.7, and 18.9.10), n = 4 (all other derivatives) and (B) n = 5. Statistical significance was calculated by one-way analysis of variance (ANOVA) with Bonferroni post-test. *p ≤ 0.03, **p ≤ 0.0021, ***p ≤ 0.0002, ****p ≤ 0.0001 were considered significant versus TNF-α treatment.

Nrf-2 = Nrf-2 induction in HCT-116 cells (Western blot and ELISA); type: cell-based, human; conditions: 10 µM, 4 h, HCT-116, Western blot and ELISA
Description: as §1
HCT-116 and A549 cells were washed with 1× PBS, and cell extracts were generated using a Nuclear Extraction Kit (Cayman Chemical, #10009277) according to the manufacturer’s instructions, whereas whole-cell lysates were obtained using SDS lysis buffer (55.5 mM Tris-HCl pH 6.8, 2.2% SDS, 9% glycerol supplemented with protease (cOmplete® Protease Inhibitor Cocktail, Roche, Mannheim, Germany) and phosphatase (PhosStop® Easy Pack, Roche, Mannheim, Germany) inhibitors. Protein concentrations from the nuclear and cytosolic fractions were determined with a bicinchoninic acid (BCA) protein assay kit (Pierce™, Rockford, Illinois, United States). Cytoplasmic and nuclear extracts (100 µg each) and 30 µg whole-cell lysates were diluted in 5× Laemmli loading dye and denatured for 10 min at 95°C, loaded on a 10% SDS polyacrylamide gel, and separated by gel electrophoresis for 15 min at 80 V followed by 60 min at 120 V. The separated proteins were blotted onto a nitrocellulose membrane (Hybond-C Extra, Amersham Biosciences Ltd., UK) using the Mini Trans-Blot® module (Bio-Rad, Hercules, California, United States) for 90 min at 90 V. The membrane was blocked with Odyssey blocking buffer (Li-Cor Biosciences, Bad Homburg, Germany) or 5% milk powder in TBS-T (Tris Buffered Saline with 0.1% Tween) for 1 h at room temperature (RT). The membranes were incubated with the primary antibodies overnight at 4°C, and then with the secondary antibodies for 1 h at RT. The primary antibodies were diluted 1:1,000 and the secondary antibodies were diluted 1:10,000 to 1:20,000. […]
FIGURE 2 Effects of NFA on Nrf-2 expression in colorectal cancer cells. HCT-116 cells were treated with 10 µM NFA and tBHQ and/or MMF for 4 h, and Nrf-2 levels were analyzed by western blotting and ELISA. […] (B) Nrf-2 expression levels were evaluated with an ELISA after incubation with NFA with different carbon chain lengths and Michael acceptor positions. […]

HCT-116 cells = test: WST-1 cell viability assay, HCT-116; type: cell-based, human; conditions: WST-1 cell viability, 24 h, n.i. = no inhibition observed
Description: (§2) Cell viability was analyzed with the WST-1 assay based on the cleavage of the stable tetrazolium salt WST-1 by the mitochondrial reductase system. Cells were seeded in the appropriate densities in a clear 96-well plate and settled overnight at 37°C in 5% CO2. The next day, the cells were treated with NFA or the substances of interest (≤0.1% dimethyl sulfoxide [DMSO]) and incubated for 24 or 48 h at 37°C in 5% CO2. Cell viability was analyzed by adding 10 µl WST-1 solution (Roche, Basel, Switzerland) and subsequently incubating the cells at 37°C for another 30–40 min. Absorbance was measured at 450 nm with a control wavelength at 620 nm using a plate reader.
(§3) Besides targeting the NF-κB pathway, the anti-tumorigenic effects of NFA can be observed by a reduction of colorectal cancer cell viability. […] Again, the cytotoxic effects of NFA were determined in HCT-116 and HT-29 colorectal cancer cells in the present study. […] HCT-116 cells were treated with increasing concentrations of NFA differing in chain length and Michael acceptor position for 24 h, and cell viability was determined using the WST-1 assay. Due to their prolonged cell division rate and their lack of sensitivity towards NFA ([Kühn et al., 2018]), HT-29 cells were treated for 48 h to gain improved NFA activity.

HT-29 cells = test: WST-1 cell viability assay, HT-29; type: cell-based, human; conditions: n.i. = no inhibition observed
Description: as §2, §3

5-LO = biological target: T1, 5-LO (Homo sapiens, UniProt P09917); test: 5-LO product formation (LTB4, 5-HETE) in intact PMNL, A23187 + 20 µM AA; type: cell-based; conditions: 10 µM, A23187 2.5 µM + 20 µM AA (data not shown)
T1 construct: endogenous in cells; host or cells: human PMNL from buffy coats
T1 sequence (P09917 1-674): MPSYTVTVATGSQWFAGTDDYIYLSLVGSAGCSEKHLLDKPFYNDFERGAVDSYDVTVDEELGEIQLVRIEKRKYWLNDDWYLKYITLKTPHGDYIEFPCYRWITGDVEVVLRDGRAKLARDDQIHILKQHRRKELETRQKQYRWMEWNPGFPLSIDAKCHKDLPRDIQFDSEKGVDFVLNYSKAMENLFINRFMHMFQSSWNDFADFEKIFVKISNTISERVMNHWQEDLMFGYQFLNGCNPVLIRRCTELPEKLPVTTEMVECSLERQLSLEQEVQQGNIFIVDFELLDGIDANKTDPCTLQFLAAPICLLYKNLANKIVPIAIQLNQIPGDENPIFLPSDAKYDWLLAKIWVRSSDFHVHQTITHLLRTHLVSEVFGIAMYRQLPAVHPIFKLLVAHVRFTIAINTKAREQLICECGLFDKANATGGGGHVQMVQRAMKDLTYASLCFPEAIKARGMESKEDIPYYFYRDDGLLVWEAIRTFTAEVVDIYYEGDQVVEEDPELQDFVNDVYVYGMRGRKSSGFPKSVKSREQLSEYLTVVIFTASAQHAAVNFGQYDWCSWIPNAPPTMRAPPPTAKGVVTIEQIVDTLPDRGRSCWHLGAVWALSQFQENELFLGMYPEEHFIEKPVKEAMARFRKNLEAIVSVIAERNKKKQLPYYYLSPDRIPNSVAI
Description: Buffy coats from different donors of different blood types were commercially obtained from DRK Blutspendedienst Baden-Württemberg Institute Frankfurt. Donors have given their written consent. […] Following separation, the supernatant was transferred very gently to new 50-ml tubes containing lymphocyte separation medium (LSM) and centrifuged for 10 min at 800 ×g at RT with the centrifuge brake turned off. Afterwards, the supernatant was decanted carefully to discard the platelets and monocytes. The PMNL were washed with 1× PBS before the residual erythrocytes were lysed in two cycles: the cell pellet was resuspended with 10 ml H2O and vortexed for 45 s, and lysis was stopped with 40 ml 1 × PBS. After 10-min centrifugation at 200 ×g at RT, the cycle was repeated once. The supernatant was aspirated, the cell pellet resuspended in 5 ml PBS/glucose and initially separated PMNL preparations with different blood types were finally pooled to gain a sufficient number of cells. […] The enzyme was diluted in PBS/EDTA/ATP, transferred into 5-ml glass tubes, and stored on ice. […] The reaction was stopped by placing the glass tubes on ice. The supernatants were transferred to 1.5 ml reaction tubes and stored at −80°C before LC-MS (liquid chromatography and mass spectrometry) analysis of LTB4 and HETEs as described in 2.6 at the Institute of Pharmacology, Goethe University, University Hospital, Germany. The lipid mediators LTB4, hydroxyeicosatetraenoic acids, 5(S)-HETE, 12(S)-HETE, 15(S)-HETE and 20-HETE were analyzed using liquid chromatography tandem-mass spectroscopy (LC-MS/MS). The LC-MS/MS system consisted of a 5500 QTrap mass spectrometer (Sciex, Darmstadt, Germany), operating in negative ESI mode, an Agilent 1200 HPLC system (Agilent, Waldbronn, Germany) and an HTC Pal autosampler (Chromtech, Idstein, Germany). Sample extraction of LTB4 and HETEs were performed using liquid-liquid extraction: 200 µl of the sample were gently mixed with 20 µl of methanol and 20 µl of internal standard solution and extracted twice with 600 µl ethyl acetate. […] Working solutions of all analytes were prepared in methanol containing 0.1% BHT. The calibration standards were prepared by further dilution of the working standards. […] The residues were reconstituted in 50 µl of methanol:water:BHT (50:50:10^−4, v/v/v) prior to injection into the LC-MS/MS system. Chromatographic separation was achieved using a Gemini NX C18 column (150 mm × 2 mm ID, 5 µm, Phenomenex, Aschaffenburg, Germany) with a precolumn of the same material. A linear gradient was employed at a flow rate of 0.5 ml/min and a total run time of 17.5 min. Mobile phases were A water:ammonia (100:0.05, v/v) and B acetonitrile:ammonia (100:0.05, v/v). […] All data were acquired using Analyst software v1.6.2 and quantitation was performed by MultiQuant software v3.0 (both Sciex, Darmstadt, Germany) using the internal standard method (isotope-dilution mass spectrometry). Calibration curves were calculated by linear regression with 1/x.

SMILES: CC(C)C[C@@H](C=O)NC(=O)[C@H](CC(C)C)NC(=O)[C@H](CC(C)C)NC(=O)OCc1ccccc1 [MG132, reference compound] (Cbz-Leu-Leu-Leu-aldehyde)
inhibition at 1 µM (NF-κB p65): ~90%

SMILES: COC(=O)/C=C/C(=O)O [MMF, monomethyl fumarate]
induction of Nrf-2 (protein levels / signaling) (Nrf-2): increase

IC50 (HCT-116 cells; Homo sapiens, HCT-116): 4.2 ± 1.2 µM | IC50 (HT-29 cells; Homo sapiens, HT-29, 48 h): 10.3 ± 1.1 µM
SMILES: CC1=CC(=O)C(C(C)C)=CC1=O [TQ, thymoquinone, reference compound]
HCT-116 (24 h) IC50 (HCT-116 cells): suppressed HCT-116 and HT-29 cell viability effectively | HT-29 (48 h) IC50 (HT-29 cells): suppressed HCT-116 and HT-29 cell viability effectively

inhibition of 5-LO product formation in PMNL (5-LO): > 90%
SMILES: COc1ccc2c(c1)CC[C@@H]1[C@@H]2CC[C@]2(C)[C@@H](NCCCCCCN3C(=O)C=CC3=O)CC[C@@H]12 [U73122, reference compound]

SMILES: CC(C)(C)c1cc(O)ccc1O [tBHQ, tert-butylhydroquinone]
induction of Nrf-2 (protein levels / signaling) (Nrf-2): increase
